In patent publication US20110280881A1, “NOVEL ANTI-HSP90 MONOCLONAL ANTIBODY” (RIKEN, priority 2010, published 2011):

Tests used:
DC2.4 cells = test: Influence of HSP90 inhibitors on expression of cell surface HSP90 (FACS with 6H8); type: cell-based; settings: DC2.4, 37° C., 3 hours; OVA 1 mg/ml, radicicol 25 μM, novobiocin 400 μM
Experimental: DC2.4 cells were incubated in the presence of OVA (in FIG. 4A, i; 1 mg/ml), radicicola (in FIG. 4A, ii; 25 μM) or novobiocin (in FIG. 4A, iii; 400 μM) with 5% CO2 at 37° C. for 3 hours. Next, the cells were cooled on ice. To detect cell surface HSP90, the cells were stained with the 6H8 antibody and then analyzed by FACS.

[1] = test system: DC2.4 cells and mouse GM-CSF-dependent BMDC; test: Influence of cytokines on expression of cell surface HSP90 (FACS with 6H8); type: cell-based; settings: for MFI of cell surface HSP90 after cytokine treatment versus negative control: BMDC, cytokines 100 ng/ml or 10 ng/ml; for expression of cell surface HSP90 after IFN treatment: DC2.4 and mouse GM-CSF-dependent BMDC, 24 hours, IFNα 500 U/ml, IFNβ 500 U/ml, IFNγ 50 ng/ml
Experimental: In view of the possibility that cytokines are variation factors for the expression of cell surface HSP90, the influences of various cytokines on the expression of cell surface HSP90 were examined as described below.
The solid bars indicate the MFI for BMDC incubated in the presence of high concentrations of IFNs (as in FIG. 5B) or other cytokines (100 ng/ml); the grey bars indicate the MFI for BMDC incubated in the presence of low concentrations of IFNs (as in FIG. 5B) or other cytokines (10 ng/ml). The open bars indicate the MFI for BMDC incubated in the absence of the cytokines as negative controls.

OT-I CD8+ T cells [2] = test: In vivo cross-presentation assay with free 6H8 antibody administered concurrently; set-up: species or system mouse; settings: antigen 0.3 μg with free 6H8 antibody 30 μg, 72 hours
Experimental: (1) CFSE-labeled CD8^+ T cells of an OT-I/CD45.1 mouse were transferred to recipient mice from the tail vein, with 6H8-OVA [or 6H8 (F(ab′)2)—OVA, or OVA, or IgG2a-OVA] (0.3 μg) and the free 6H8 antibody [or 6H8 (F(ab′)2) or IgG2a] (30 μg) administered from the tail vein concurrently. (2) 72 hours later, the spleen was recovered from each mouse, and 2×10^6 splenocytes were stained with the PE-CD45.1 antibody in a 96-well round-bottomed plate for 30 minutes (while cooling on ice). (3) The CFSE intensity of CD45.1-positive cells (OT-I CD8^+ T cells) was determined using FACS Canto (BD).

OT-I CD8+ T cells [3] = test: In vitro cross-presentation assay with BMDC of normal and FcRγ KO mouse; type: cell-based; settings: BMDC pulsed 3 hours, co-culture with OT-I CD8+ T cells, IFNγ ELISA
Experimental: (1) A bone marrow-derived dendritic cells (BMDCs) were established from a normal mouse and an FcRγ KO mouse (supplied by Professor Akira Shibuya, Immunology, Life System Medical Sciences, Majors of Medical Sciences, Graduate School of Comprehensive Human Sciences, University of Tsukuba) as described below. Bone marrow was recovered from a mouse femur and tibia, and 1×10^6 cells each were cultured in a 24-well plate using 2 ml/well of a complete RPMI containing 20 ng/ml recombinant mouse GM-CSF (R&D). Half of the medium was exchanged for a fresh medium on day 3 of cultivation, and the cells obtained on day 5 of cultivation were used as the BMDC. (2) BMDCs at Day 5 induced in a GM-CSF-dependent manner was stained with biotin-6H8 (2.5 μg/ml) and streptavidin-APC (0.2 μg/ml), and its fluorescence was determined using FACS Canto (BD).
(1) A pellet of 1×10^6 BMDC cells at Day 5 induced in a GM-CSF-dependent manner were prepared in a 15-ml tube. After adding 400 μl of an antigen (6H8-OVA, OVA, or OVA257-264) thereto, the tube was incubated with 5% CO2 at 37° C. for 3 hours. The cells were fixed in 0.5% para-formaldehyde, after which the cells were washed with 0.1 M glycine and then with RPMI; thereafter, the density was adjusted to 1×10^5 cells/ml. (2) Concurrently, OT-I CD8^+ T cells were purified and the density was adjusted to 1×10^5 cells/ml. […]

Molecule: CO[C@@H]1[C@@H](OC(N)=O)[C@@H](O)[C@H](Oc2ccc3c(O)c(NC(=O)c4ccc(O)c(CC=C(C)C)c4)c(=O)oc3c2C)OC1(C)C [novobiocin]
- influence on expression level of surface HSP90 (DC2.4 cells): no or almost no influence

Molecule: IL-5: cytokine
- MFI of cell surface HSP90 after cytokine treatment versus negative control [1]: no significant difference from the negative control

Molecule: ovalbumin [ovalbumin used as a model antigen]
- influence on expression level of surface HSP90 (DC2.4 cells): do not influence
- enhancing effect by the 6H8 antibody on proliferation reaction of OT-I CD8+ T cells with this antigen (OT-I CD8+ T cells [2]): not noted
- cross-presentation potential of FcRγ KO mouse-derived dendritic cells compared with normal mouse-derived dendritic cells (OT-I CD8+ T cells [3]): equivalent

Molecule: IFNγ: cytokine
- expression of cell surface HSP90 after IFN treatment [1]: increased

Molecule: IFNα
- expression of cell surface HSP90 after IFN treatment [1]: increased

Molecule: OVA257-264: major OVA epitope peptide (SIINFEKL)
- cross-presentation potential of FcRγ KO mouse-derived dendritic cells compared with normal mouse-derived dendritic cells (OT-I CD8+ T cells [3]): equivalent

Molecule: C[C@@H]1C[C@H]2O[C@@H]2/C=C\C=C\C(=O)Cc2c(Cl)c(O)cc(O)c2C(=O)O1 [radicicol]
- influence on expression level of surface HSP90 (DC2.4 cells): no or almost no influence

Molecule: IL-6: cytokine
- MFI of cell surface HSP90 after cytokine treatment versus negative control [1]: no significant difference from the negative control

Molecule: IL-18: cytokine
- MFI of cell surface HSP90 after cytokine treatment versus negative control [1]: no significant difference from the negative control

Molecule: IL-15: cytokine
- MFI of cell surface HSP90 after cytokine treatment versus negative control [1]: no significant difference from the negative control
